Results from US20240239752A1, “BICYCLIC HETEROAROMATIC INHIBITORS OF KLK5” (BioCryst Pharmaceuticals, Inc., priority 2021, published 2024).

biological target: T1, recombinant human KLK5 (Homo sapiens, UniProt Q9Y337); test: Kallikrein (KLK) 5 enzymatic assay (Boc-VPR-AMC fluorogenic substrate); format: biochemical; settings: recombinant human KLK5 0.1 μg/well, Boc-VPR-AMC 100 μM, pH 7.5, room temperature, 1% DMSO; tested a minimum of three times
T1 construct: purchased Novoprotein or R&D Systems C415 or 1108-SE
T1 sequence (Q9Y337 23-293): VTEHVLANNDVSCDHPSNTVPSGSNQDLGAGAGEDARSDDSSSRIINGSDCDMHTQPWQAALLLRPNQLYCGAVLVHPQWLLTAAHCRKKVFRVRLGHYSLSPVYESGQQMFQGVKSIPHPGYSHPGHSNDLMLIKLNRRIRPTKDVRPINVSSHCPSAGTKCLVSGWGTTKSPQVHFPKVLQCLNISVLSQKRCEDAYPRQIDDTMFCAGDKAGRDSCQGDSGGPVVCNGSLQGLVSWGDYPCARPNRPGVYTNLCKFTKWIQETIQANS
How it was run: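 Recombinant human KLK5 (0.1 μg/well) was preincubated with compound at room temperature in 0.1 M NaH2PO4, pH 7.5, 1% DMSO, then started with 100 μM Boc-VPR-AMC. The rate was followed at 380/460 nm, and IC50 came from percent inhibition relative to enzyme alone, with at least three runs.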

Row | IC50 [nM] | Compound
1 | 1000 to 10000 | COCCN1CC(n2nc3ccc(-c4ccc5ccnc(N)c5c4)cc3c2COc2ccccc2CC(=O)O)C1 [Compound 122b, 2-(2-((5-(1-aminoisoquinolin-7-yl)-2-(1-(2-methoxyethyl)azetidin-3-yl)-2H-indazol-3-yl)methoxy)phenyl)acetic acid]
2 | 1000 to 10000 | Nc1nccc2c(-c3ccc4nn(C5CN(CCO)C5)c(COc5ccccc5CC(=O)O)c4c3)cccc12 [Compound 123b, 2-(2-((5-(1-aminoisoquinolin-5-yl)-2-(1-(2-hydroxyethyl)azetidin-3-yl)-2H-indazol-3-yl)methoxy)phenyl)acetic acid]
3 | 1000 to 10000 | CC(C)CCN1CC(n2nc3ccc(-c4ccc5ccnc(N)c5c4)cc3c2COc2ccccc2CC(=O)O)C1 [Compound 124b, 2-(2-((5-(1-aminoisoquinolin-7-yl)-2-(1-isopentylazetidin-3-yl)-2H-indazol-3-yl)methoxy)phenyl)acetic acid]
4 | 1000 to 10000 | CCOC(=O)N1CC(n2nc3ccc(-c4cccc5c(N)nccc45)cc3c2COc2ccccc2CC(=O)O)C1 [Compound 126c, 2-(2-((5-(1-aminoisoquinolin-5-yl)-2-(1-(ethoxycarbonyl)azetidin-3-yl)-2H-indazol-3-yl)methoxy)phenyl)acetic acid]
5 | 1000 to 10000 | CCOC(=O)N1CC(n2nc3ccc(-c4ccc5ccnc(N)c5c4)cc3c2COc2ccccc2CC(=O)O)C1 [Compound 127b, 2-(2-((5-(1-aminoisoquinolin-7-yl)-2-(1-(ethoxycarbonyl)azetidin-3-yl)-2H-indazol-3-yl)methoxy)phenyl)acetic acid]
6 | 1000 to 10000 | CCC(=O)N1CC(n2nc3ccc(-c4ccc5ccnc(N)c5c4)cc3c2COc2ccccc2CC(=O)O)C1 [Compound 128c, 2-(2-((5-(1-aminoisoquinolin-7-yl)-2-(1-propionylazetidin-3-yl)-2H-indazol-3-yl)methoxy)phenyl)acetic acid]
7 | 1000 to 10000 | CCC(=O)N1CC(n2nc3ccc(-c4cccc5c(N)nccc45)cc3c2COc2ccccc2CC(=O)O)C1 [Compound 129b, 2-(2-((5-(1-aminoisoquinolin-5-yl)-2-(1-propionylazetidin-3-yl)-2H-indazol-3-yl)methoxy)phenyl)acetic acid]
8 | < 1000 | CCS(=O)(=O)N1CC(n2nc3ccc(-c4cccc5c(N)nccc45)cc3c2COc2ccccc2CC(=O)O)C1 [Compound 130c, 2-(2-((5-(1-aminoisoquinolin-5-yl)-2-(1-(ethylsulfonyl)azetidin-3-yl)-2H-indazol-3-yl)methoxy)phenyl)acetic acid]
9 | < 1000 | CC(C)CCN1CCC(n2nc3ccc(-c4ccc5ccnc(N)c5c4)cc3c2COc2ccccc2CC(=O)O)CC1 [Compound 131h, 2-(2-((5-(1-aminoisoquinolin-7-yl)-2-(1-isopentylpiperidin-4-yl)-2H-indazol-3-yl)methoxy)phenyl)acetic acid]
10 | < 1000 | CC(C)CCN1CCC(n2nc3ccc(-c4cccc5c(N)nccc45)cc3c2COc2ccccc2CC(=O)O)CC1 [Compound 132b, 2-(2-((5-(1-aminoisoquinolin-5-yl)-2-(1-isopentylpiperidin-4-yl)-2H-indazol-3-yl)methoxy)phenyl)acetic acid]
11 | > 10000 | CCS(=O)(=O)N1CC(n2nc3ccc(-c4ccc5ccnc(N)c5c4)cc3c2COc2ccccc2CC(=O)O)C1 [Compound 133b, 2-(2-((5-(1-aminoisoquinolin-7-yl)-2-(1-(ethylsulfonyl)azetidin-3-yl)-2H-indazol-3-yl)methoxy)phenyl)acetic acid]
12 | < 1000 | COCCN1CCC(n2nc3ccc(-c4cccc5c(N)nccc45)cc3c2COc2ccccc2CC(=O)O)CC1 [Compound 134c, 2-(2-((5-(1-aminoisoquinolin-5-yl)-2-(1-(2-methoxyethyl)piperidin-4-yl)-2H-indazol-3-yl)methoxy)phenyl)acetic acid]
13 | 1000 to 10000 | Nc1nccc2c(-c3ccc4nn(C5CC(N)C5)c(COc5ccccc5CC(=O)O)c4c3)cccc12 (centres unmarked) [Compound 136b, 2-(2-((2-(3-aminocyclobutyl)-5-(1-aminoisoquinolin-5-yl)-2H-indazol-3-yl)methoxy)phenyl)acetic acid]

Continued, molecule first:

Row | Compound | IC50 [nM]
14 | Nc1nccc2c(-c3ccc4nn([C@H]5CCN(CC(=O)O)C5)c(COc5ccccc5CC(=O)O)c4c3)cccc12 [Compound 114d, (S)-2-(2-((5-(1-aminoisoquinolin-5-yl)-2-(1-(carboxymethyl)pyrrolidin-3-yl)-2H-indazol-3-yl)methoxy)phenyl)acetic acid] | < 1000
15 | Nc1nccc2c(-c3ccc4nn([C@H]5CCN(CCO)C5)c(COc5ccccc5CC(=O)O)c4c3)cccc12 [Compound 115b, (S)-2-(2-((5-(1-aminoisoquinolin-5-yl)-2-(1-(2-hydroxyethyl)pyrrolidin-3-yl)-2H-indazol-3-yl)methoxy)phenyl)acetic acid] | 1000 to 10000
16 | Nc1nccc2ccc(-c3ccc4nn([C@H]5CCN(CC(=O)O)C5)c(COc5ccccc5CC(=O)O)c4c3)cc12 [Compound 116b, (S)-2-(2-((5-(1-aminoisoquinolin-7-yl)-2-(1-(carboxymethyl)pyrrolidin-3-yl)-2H-indazol-3-yl)methoxy)phenyl)acetic acid] | 1000 to 10000
17 | COCCN1CC[C@H](n2nc3ccc(-c4cccc5c(N)nccc45)cc3c2COc2ccccc2CC(=O)O)C1 [Compound 117c, (S)-2-(2-((5-(1-aminoisoquinolin-5-yl)-2-(1-(2-methoxyethyl)pyrrolidin-3-yl)-2H-indazol-3-yl)methoxy)phenyl)acetic acid] | 1000 to 10000
18 | COCCN1CC[C@H](n2nc3ccc(-c4ccc5ccnc(N)c5c4)cc3c2COc2ccccc2CC(=O)O)C1 [Compound 118b, (S)-2-(2-((5-(1-aminoisoquinolin-7-yl)-2-(1-(2-methoxyethyl)pyrrolidin-3-yl)-2H-indazol-3-yl)methoxy)phenyl)acetic acid] | 1000 to 10000
19 | Nc1nccc2ccc(-c3ccc4nn(C5CN(CCO)C5)c(COc5ccccc5CC(=O)O)c4c3)cc12 [Compound 119h, 2-(2-((5-(1-aminoisoquinolin-7-yl)-2-(1-(2-hydroxyethyl)azetidin-3-yl)-2H-indazol-3-yl)methoxy)phenyl)acetic acid] | 1000 to 10000
20 | COCCN1CC(n2nc3ccc(-c4cccc5c(N)nccc45)cc3c2COc2ccccc2CC(=O)O)C1 [Compound 120c, 2-(2-((5-(1-aminoisoquinolin-5-yl)-2-(1-(2-methoxyethyl)azetidin-3-yl)-2H-indazol-3-yl)methoxy)phenyl)acetic acid] | < 1000
21 | CC(C)CCN1CC(n2nc3ccc(-c4cccc5c(N)nccc45)cc3c2COc2ccccc2CC(=O)O)C1 [Compound 121c, 2-(2-((5-(1-aminoisoquinolin-5-yl)-2-(1-isopentylazetidin-3-yl)-2H-indazol-3-yl)methoxy)phenyl)acetic acid] | < 1000
22 | CC(C)(C)OC(=O)N1CC(n2nc3ccc(-c4cccc5c(N)nccc45)cc3c2COc2ccccc2CC(=O)O)C1 [Compound 125b, 2-(2-((5-(1-aminoisoquinolin-5-yl)-2-(1-(tert-butoxycarbonyl)azetidin-3-yl)-2H-indazol-3-yl)methoxy)phenyl)acetic acid] | < 1000
23 | CC(C)(C)OC(=O)NC1CC(n2nc3ccc(-c4cccc5c(N)nccc45)cc3c2COc2ccccc2CC(=O)O)C1 (centres unmarked) [Compound 135f, 2-(2-((5-(1-aminoisoquinolin-5-yl)-2-(3-(tert-butoxycarbonylamino)cyclobutyl)-2H-indazol-3-yl)methoxy)phenyl)acetic acid] | < 1000
